{
  "source": "paper PMC4509821",
  "about": "(International journal of antimicrobial agents, 2015)",
  "key": {"[1]": {"system": "Streptococcus mutans UA159", "experiment": "Streptococcus mutans cell growth inhibition", "type": "cell-based"}, "[2]": {"system": "Streptococcus gordonii DL1", "experiment": "Streptococcus gordonii cell growth and biofilm formation", "type": "cell-based", "conditions": "1.56 μM, P > 0.05"}, "[3]": {"system": "S. mutans biofilm", "experiment": "Streptococcus mutans biofilm formation inhibition", "type": "cell-based", "conditions": "16 h, read-out: IC50 Biofilm"}, "[4]": {"biological_target": "S. mutans dihydrofolate reductase (SmDHFR) (Streptococcus mutans, UniProt Q8DUI2)", "experiment": "SmDHFR enzymatic activity assay", "type": "biochemical"}, "[5]": {"system": "Streptococcus sanguinis SK36", "experiment": "Streptococcus sanguinis cell growth and biofilm formation", "type": "cell-based", "conditions": "1.56 μM, P > 0.05"}},
  "data": [
    {"smiles": "COc1cc(NCc2ccc3nc(N)nc(N)c3c2C)cc(OC)c1OC", "note": "[TMQ, trimetrexate]", "values": [
      {"measurement": "MIC", "setting": "[1]; UA159", "value": 0.0488, "unit": "µM"},
      {"measurement": "IC50", "setting": "[1]; UA159, read-out: IC50 Growth", "value": "42.5 ± 3.22", "unit": "nM"},
      {"measurement": "inhibition of biofilm formation of S. gordonii", "setting": "[2]", "value": "did not inhibit"},
      {"measurement": "IC50", "setting": "[3]", "value": "49.1 ± 4.1", "unit": "nM"},
      {"measurement": "IC50", "setting": "[4]", "value": "2.2 ± 0.7", "unit": "nM"},
      {"measurement": "Ki", "setting": "[4]", "value": "1.3 ± 0.4", "unit": "nM"},
      {"measurement": "inhibition of biofilm formation of S. sanguinis", "setting": "[5]", "value": "did not inhibit"}
    ]}
  ]
}
